Experimental data: ChEMBL document CHEMBL2146418, “Synthesis and comparison of antiplasmodial activity of (+), (-) and racemic 7-chloro-4-(N-lupinyl)aminoquinoline” (Bioorg Med Chem, 2012)

Columns and labels:
[1] = Cytotoxicity against human HMEC1 cells after 72 hrs by MTT assay; type: cell-based; conditions: HMEC-1, 72 h
[2] = system: Plasmodium falciparum; assay: Antiplasmodial activity against chloroquine-sensitive Plasmodium falciparum D10 infected in human RBC assessed as inhibition of parasite growth after 72 hrs by lactate dehydrogenase assay; type: functional, organism-based; conditions: D10, 72 h
[3] = system: Plasmodium falciparum; assay: Antiplasmodial activity against chloroquine-resistant Plasmodium falciparum W2 infected in human RBC assessed as inhibition of parasite growth after 72 hrs by lactate dehydrogenase assay; type: functional, organism-based; conditions: W2, 72 h
[4] = system: Plasmodium falciparum; assay: Antiplasmodial activity against chloroquine-sensitive Plasmodium falciparum 3D7 infected in human RBC assessed as inhibition of parasite growth after 72 hrs by lactate dehydrogenase assay; type: functional, organism-based; conditions: 3D7, 72 h
[5] = system: Plasmodium falciparum; assay: Antiplasmodial activity against chloroquine-resistant Plasmodium falciparum isolate Kenya after 72 hrs by lactate dehydrogenase assay; type: functional, organism-based
[6] = Cytotoxicity against human HDF cells after 72 hrs by MTT assay; type: cell-based
[7] = Therapeutic index, ratio of IC50 for human HMEC1 cells to IC50 for Plasmodium falciparum; type: cell-based; conditions: HMEC1 cells versus Plasmodium falciparum, read-out: Ratio IC50

SMILES	IC50 [1] [nM]	IC50 [2] [nM]	IC50 [3] [nM]	IC50 [4] [nM]	IC50 [5] [nM]	IC50 [6] [nM]	selectivity ratio [7]
Clc1ccc2c(NC[C@@H]3CCCN4CCCC[C@H]34)ccnc2c1	> 49000	24	53.7	28.1	29.2	22600	> 1000
Clc1ccc2c(NC[C@H]3CCCN4CCCC[C@@H]34)ccnc2c1	> 60000	17.5	35.8	21.9	18.9	26900	> 1000
Clc1ccc2c(NCC3CCCN4CCCCC34)ccnc2c1 (racemic)	> 60000	16.1	35.4	18.6	19.4	24600	> 1000
CCN(CC)CCCC(C)Nc1ccnc2cc(Cl)ccc12 (stereo not drawn) [CHLOROQUINE]	> 38000	–	–	–	–	> 38000	–
